Assay results reported in patent US20230295118A1 (EnhancedBio Inc., priority 2022, published 2023).

Key:
Assay type in all cases: cell-based
[1] = system: mantle cell lymphoma cell (Mino or JeKo-1); test: Antiproliferative effect, MTS cell viability assay; settings: 72 h; for IC50: mantle cell lymphoma cell (Mino or JeKo-1), MTS assay, read-out: IC50 (anti-proliferation); for inhibition of cell proliferation of Mino cells: 0-1 μM, result in words
Outline: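 MTS read-out (formazan absorbance at 490 nm) after 72 h exposure of Mino cells to 0–1 μM compound (0.0001, 0.001, 0.01, 0.1, 1 μM). Palbociclib and abemaciclib served as positive controls.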

CDK4/6 = CDK4/6 degradation in A375 melanoma cells (FIG. 1); settings: result in words
CDK6 = biological target: T1, CDK6 (Homo sapiens, UniProt Q00534); test: CDK6 degradation (DC50, Dmax)
T1 construct: endogenous in cells
T1 sequence (Q00534 whole entry): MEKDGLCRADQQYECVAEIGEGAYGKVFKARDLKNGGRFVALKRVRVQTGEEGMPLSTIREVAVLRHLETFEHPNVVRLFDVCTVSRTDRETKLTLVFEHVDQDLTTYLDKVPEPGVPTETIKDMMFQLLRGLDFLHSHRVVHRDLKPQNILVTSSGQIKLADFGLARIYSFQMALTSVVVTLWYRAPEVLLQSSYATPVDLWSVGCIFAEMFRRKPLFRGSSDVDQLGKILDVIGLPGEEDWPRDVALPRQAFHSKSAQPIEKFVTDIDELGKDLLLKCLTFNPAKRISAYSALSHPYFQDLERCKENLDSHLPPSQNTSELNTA

CDK4 = biological target: T2, CDK4 (Homo sapiens, UniProt P11802); test: CDK4 degradation (DC50, Dmax)
T2 construct: endogenous in cells
T2 sequence (P11802 whole entry): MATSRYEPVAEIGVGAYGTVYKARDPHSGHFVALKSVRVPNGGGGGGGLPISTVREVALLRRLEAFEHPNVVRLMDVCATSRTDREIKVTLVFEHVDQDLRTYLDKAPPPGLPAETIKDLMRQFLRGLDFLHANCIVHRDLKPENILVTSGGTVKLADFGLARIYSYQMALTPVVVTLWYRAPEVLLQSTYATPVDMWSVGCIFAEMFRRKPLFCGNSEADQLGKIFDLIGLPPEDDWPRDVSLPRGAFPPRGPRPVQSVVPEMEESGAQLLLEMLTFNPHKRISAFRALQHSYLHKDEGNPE

| IC50 [1] | DC50 (CDK6) | Dmax (CDK6) | DC50 (CDK4) | Dmax (CDK4) | SMILES | inhibition of cell proliferation of Mino cells [1] | CDK4/6 degradation (CDK4/6) |
| --- | --- | --- | --- | --- | --- | --- | --- |
| < 50 nM | < 50 nM | > 80% | < 50 nM | > 80% | CC(=O)c1c(C)c2cnc(Nc3ccc(N4CCN(CCCNc5ccc6c(c5)C(=O)N(C5CCC(=O)NC5=O)C6=O)CC4)cn3)nc2n(C2CCCC2)c1=O (stereo not drawn) [Compound 49, 5-((3-(4-(6-((6-acetyl-8-cyclopentyl-5-methyl-7-oxo-7,8-dihydropyrido[2,3-d]pyrimidin-2-yl)amino)pyridin-3-yl)piperazin-1-yl)propyl)amino)-2-(2,6-dioxopiperidin-3-yl) isoindoline-1,3-dione] | dose-dependent inhibition of cell proliferation | dose-dependent CDK4/6 degradation |
| < 50 nM | < 50 nM | > 80% | < 50 nM | > 80% | Cc1nc2c(F)cc(-c3nc(Nc4ccc(CN5CCN(CCCNc6ccc7c(c6)C(=O)N(C6CCC(=O)NC6=O)C7=O)CC5)cn4)ncc3F)cc2n1C(C)C (stereo not drawn) [Compound 73, 2-(2,6-dioxopiperidin-3-yl)-5-((3-(4-((6-((5-fluoro-4-(4-fluoro-1-isopropyl-2-methyl-1H-benzo[d]imidazol-6-yl)pyrimidin-2-yl)amino)pyridin-3-yl)methyl)piperazin-1-yl)propyl)amino) isoindoline-1,3-dione] | dose-dependent inhibition of cell proliferation | dose-dependent CDK4/6 degradation |
| < 50 nM | 50 to 200 nM | > 60% | 50 to 200 nM | > 60% | CC(=O)c1c(C)c2cnc(Nc3ccc(N4CCN(C(=O)CNc5ccc6c(c5)C(=O)N(C5CCC(=O)NC5=O)C6=O)CC4)cn3)nc2n(C2CCCC2)c1=O (stereo not drawn) [Compound 104, 5-((2-(4-(6-((6-acetyl-8-cyclopentyl-5-methyl-7-oxo-7,8-dihydropyrido[2,3-d]pyrimidin-2-yl)amino)pyridin-3-yl)piperazin-1-yl)-2-oxoethyl)amino)-2-(2,6-dioxopiperidin-3-yl)isoindoline-1,3-dione] | dose-dependent inhibition of cell proliferation | dose-dependent CDK4/6 degradation |
| < 50 nM | < 50 nM | > 60% | < 50 nM | > 80% | Cc1nc2c(F)cc(-c3nc(Nc4ccc(CC5CCN(C6CCN(c7ccc8c(c7)CN(C7CCC(=O)NC7=O)C8=O)CC6)CC5)cn4)ncc3F)cc2n1C(C)C (stereo not drawn) [Compound 170, 3-(5-(4-((6-((5-fluoro-4-(4-fluoro-1-isopropyl-2-methyl-1H-benzo[d]imidazol-6-yl)pyrimidin-2-yl)amino)pyridin-3-yl)methyl)-[1,4′-bipiperidin]-1′-yl)-1-oxoisoindolin-2-yl)piperidine-2,6-dione] | – | – |
| 50 to 200 nM | 50 to 200 nM | > 60% | 50 to 200 nM | > 60% | Cc1nc2c(F)cc(-c3nc(Nc4ccc(CC5CCN(C6CCN(c7ccc(C(=O)NC8CCC(=O)NC8=O)cc7)CC6)CC5)cn4)ncc3F)cc2n1C(C)C (stereo not drawn) [Compound 171, N-(2,6-dioxopiperidin-3-yl)-4-(4-((6-((5-fluoro-4-(4-fluoro-1-isopropyl-2-methyl-1H-benzo[d]imidazol-6-yl)pyrimidin-2-yl)amino)pyridin-3-yl)methyl)-[1,4′-bipiperidin]-1′-yl) benzamide] | – | – |
| < 50 nM | 50 to 200 nM | > 80% | 50 to 200 nM | > 80% | Cc1nc2c(F)cc(-c3nc(Nc4ccc(CC5CCN(C6CCN(c7ccc(NC8CCC(=O)NC8=O)cc7)CC6)CC5)cn4)ncc3F)cc2n1C(C)C (stereo not drawn) [Compound 172, 3-((4-(4-((6-((5-fluoro-4-(4-fluoro-1-isopropyl-2-methyl-1H-benzo[d]imidazol-6-yl)pyrimidin-2-yl)amino)pyridin-3-yl)methyl)-[1,4′-bipiperidin]-1′-yl)phenyl)amino) piperidine-2,6-dione] | – | – |
